{
  "source": "patent US9107954B2",
  "about": "“Bivalent ligands for the treatment of neurological disorders” (Virginia Commonwealth University, priority 2012, dated 2015)",
  "key": {"[1]": {"system": "fusion of CCR5-MOR CHO target cells (CD4) with HEK effector cells (HIV-1 gp140)", "type": "cell-based", "conditions": "for effect on cell fusion: 1 at 3000 nM, 2 at 10000 nM, maraviroc at 100 nM"}, "[2]": {"system": "R5-tropic HIV-1SF162 in primary human astrocytes", "test": "HIV-1SF162 infectivity, Tat luciferase reporter assay in primary human astrocytes", "type": "cell-based", "conditions": "for effect on viral entry / Tat production, Example 4 / effect on virus invasion (Tat expression), Example 3: MVC 100 nM; for effect on viral entry / Tat production, Example 4: NTX 1.5 μM, 18 h; for effect on virus invasion (Tat expression), Example 3: NTX 1500 nM, naltrexone groups with and without morphine", "description": "Primary human astrocytes (ScienCell catalog #1901) were cultured in 24-well plates and transfected with the plasmid pBlue3′LTR-luc (NIH AIDS Research and Reference Reagent Program) using Lipofectamine 2000 (Invitrogen) followed by infection with HIV-1. After 18-20 h cells were rinsed twice in 1×PBS then lysed in Cell Culture Lysis Reagent (Promega) and relative Tat protein expression was determined by measuring luciferase activity using the Luciferase Assay System (Promega; catalog # E1500). Light units were measured using a PHERAstar FS plate reader (BMG Labtech).\nPrimary human astroglial cells were infected by incubation with the neurotropic HIV-1 strain SF162. A concentration of HIV-1 p24 50 pg/10^6 cells was used, and a no virus condition served as a negative control. Viral stocks were quantified by assaying for HIV-1 p24 (Alliance p24 Antigen ELISA Kit; Advanced Bioscience, Kensington, Md.).\nHIV-1SF162 infectivity of human astroglia was determined based on the relative amount of Tat protein expressed by the virus using a luciferase-based reporter assay. Reporters under the control of the long terminal repeat (LTR) viral promoter are a robust means of measuring HIV-1 infection, since the LTR is activated by HIV-1 Tat, which is only expressed by infected cells.\nAs the bivalent ligand 1 has been designed as a molecular probe to study the underlying mechanisms of opioid-enhanced NeuroAIDS by targeting the MOR-CCR5 heterodimerization, a luciferase-based HIV-1SF162) infection assay measuring the relative transactivator of transcription (Tat) protein expression in human astrocytes was performed (FIG. 15). Tat is encoded by HIV-1 and is the first protein to be produced after HIV-1 infection. Thus, Tat expression level is directly proportioned to the extent of HIV-1 invasion. Astrocytes were chosen based on the following facts: first, astrocytes express both the MOR and the CCR5. Second, the human blood-brain barrier (BBB) is composed of interacting adjacent cerebral endothelial cells (CECs) and astrocytes, which makes astrocytes a readily accessible target during the course of HIV infection. Thirdly, during NeuroAIDS development astroglia are important cellular sites within the CNS where opioids synergistically potentiate the pathophysiological effects of HIV-1 infection."}, "[3]": {"system": "CCR5", "test": "Flow cytometry of CCR5 immunofluorescence in HIV-1 infected primary human astrocytes", "type": "cell-based", "conditions": "vs uninfected", "description": "MOR and CCR5 immunoreactivity were detected by direct immunofluorescence in astroglial cells by flow cytometric analysis. Cells were washed in phosphate-buffered saline (PBS)-0.1% bovine serum albumin (BSA) buffer and incubated with primary MOR antibody followed by a secondary antibody conjugated to allophycocyanin (APC) (Biolegend, Inc; catalog #408001) and Alexa Fluor® 488 conjugated anti-mouse CD195 (CCR5) antibody (Biolegend, Inc; catalog #107008) in permeabilization buffer (PBS-0.1% BSA-0.1% Triton X-100) at a 1:500 dilution. Fluorescence was measured from 10,000 gated cells per treatment in each experiment using a FACSCanto II flow cytometer (BD Biosciences, San Jose, Calif.). Auto-fluorescence was compensated by setting the detector voltage to the minimum level that discriminates between auto-fluorescence and specific immunofluorescence in both negative and positive controls. Isotype control antibodies were used to define settings in histogram plot analyses.\nWe quantitatively analyzed the effect of MVC and the bivalent compound on CCR5 and MOR expression levels in virally infected astrocytes by flow cytometry. […] Approximately 20,000 events were analyzed per treatment condition in each experiment and size discrimination was used as a crude method for viability determination."}, "[4]": {"biological_target": "T1, MOR (Homo sapiens (Human), UniProt P35372)", "test": "Calcium mobilization assay, CCR5-MOR CHO co-expressed cell line (Gqi5), DAMGO-stimulated", "type": "cell-based", "conditions": "cells stimulated with DAMGO; read-out: MOR IC50", "description": "(§1) Having a cell line that consistently expresses both CCR5 and MOR was essential for studying how the two receptors interact with each other using calcium mobilization assays and cell fusion assays. A previously established MOR Chinese hamster ovarian (CHO) cell line was transfected with a plasmid containing CCR5 tagged with a yellow fluorescent protein on its N-terminus (CCR5-YFP). ^1 After 48 hours cells were sorted based upon the presence of the yellow fluorescent protein tag using a flow cytometer. Cells containing the tagged receptors were then cultured and used in the subsequent assays.\n(§2) Calcium mobilization is directly related to G protein-coupled receptor (GPCR) activation and therefore is a useful technique to study the functional activity of new ligands."}, "[5]": {"biological_target": "CCR5 (Homo sapiens (Human), UniProt P51681)", "sequence (P51681 whole entry)": "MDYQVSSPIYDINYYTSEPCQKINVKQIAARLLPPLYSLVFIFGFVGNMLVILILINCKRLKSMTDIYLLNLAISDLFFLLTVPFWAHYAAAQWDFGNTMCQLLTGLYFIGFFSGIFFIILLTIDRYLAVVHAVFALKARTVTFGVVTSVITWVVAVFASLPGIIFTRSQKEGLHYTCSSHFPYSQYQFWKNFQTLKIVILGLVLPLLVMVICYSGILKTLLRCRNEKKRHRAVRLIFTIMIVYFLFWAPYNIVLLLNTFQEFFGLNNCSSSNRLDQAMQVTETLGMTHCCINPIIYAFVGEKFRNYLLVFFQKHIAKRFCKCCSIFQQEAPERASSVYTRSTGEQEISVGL", "test": "Calcium mobilization assay, CCR5-MOR CHO co-expressed cell line (Gqi5), RANTES-stimulated", "type": "cell-based", "description": "as §1, §2"}, "[6]": {"biological_target": "mu opioid receptor (MOR) (Homo sapiens (Human), UniProt P35372)", "test": "MOR competitive radioligand binding, [3H]naloxone, hMOR-expressed CHO cells", "description": "MOR/CHO cell culture and membrane homogenate preparation followed literature report^52.\nSaturation binding was performed by incubating membranes for 90 minutes at 30° C. with 0.5-15 nM [^3H]naloxone in assay buffer in a 0.5 mL volume. […] The reaction was terminated by rapid filtration through Whatman GF/B glass fiber filters, followed by 3 washes with 3 mL ice-cold Tris buffer. Bound radioactivity will be determined by liquid scintillation spectrophotometry at 45% efficiency for [^3H].\nFor competition binding assay (agonists or antagonists), Hill plots linear regression analysis and the Cheng-Prusoff equation were applied to determine the IC50 and Ki values. In [^35S]GTPγS binding assays, agonist concentration effect curves were fit by non-linear regression to obtain Emax and EC50 values; antagonist inhibition of agonist-stimulated [^35S]GTPγS binding was analyzed by Hill analysis and AD50 values were corrected to Ki values using the Cheng-Prusoff equation. All analyses were using Prism 4.0.\nHerein is reported the characterization of this novel molecular probe in for its binding affinity, Ca^2+ flux functional activity, and HIV-1 inhibition potency."}, "[7]": {"biological_target": "T1, MOR", "test": "DAMGO-stimulated Ca2+ flux assay in hMOR-CHO cells transfected with Gqi5", "type": "cell-based"}, "[8]": {"system": "human astrocytes", "test": "Cytotoxicity assay, AOPI live/dead labeling of human astrocytes", "type": "cell-based", "description": "Cell viability was assessed by measurement of both live and dead cells using dual (green/red) fluorescence labeling with AOPI analyzed with Cellometer Vision CBA (Nexcelom Bioscience LLC).\nTo determine whether HIV-1±morphine exposure affected astrocyte viability in the presence or absence of MVC or the bivalent compound, a cell death assay was performed at 24 h after treatment."}},
  "note": "Like-named read-outs stand apart in the source and are kept apart here.",
  "data": [
    {"smiles": "CN1CC[C@]23c4c5ccc(O)c4O[C@H]2[C@@H](O)C=C[C@H]3[C@H]1C5", "note": "[morphine, reference compound]", "values": [
      {"measurement": "effect of morphine on cell fusion", "setting": "[1]; morphine 300 nM, +CD4, vs +CD4 alone", "value": "significant increase"},
      {"measurement": "fold increase in Tat expression after infection with R5 in combination with morphine", "setting": "[2]; morphine 500 nM, vs uninfected", "value": "~2.7", "unit": "fold"},
      {"measurement": "fold increase in CCR5 expression levels, HIV-1R5 in combination with morphine", "setting": "[3]", "value": 3.3, "unit": "fold"}
    ]},
    {"smiles": "O=C1CC[C@@]2(O)[C@H]3Cc4ccc(O)c5c4[C@@]2(CCN3CC2CC2)[C@H]1O5", "note": "[Naltrexone, reference compound]", "values": [
      {"measurement": "effect on viral entry / Tat production, Example 4", "setting": "[2]", "value": "did not show significant effect"},
      {"measurement": "effect on virus invasion (Tat expression), Example 3", "setting": "[2]", "value": "no effect on virus invasion"}
    ]},
    {"smiles": "Cc1nnc(C(C)C)n1C1CC2CCC(C1)N2CC[C@H](NC(=O)C1CCC(F)(F)CC1)c1cccc(NC(=O)COCC(=O)NCCCCCCCNC(=O)COCC(=O)N[C@@H]2CC[C@@]3(O)[C@H]4Cc5ccc(O)c6c5[C@@]3(CCN4CC3CC3)[C@H]2O6)c1", "note": "(stereo partly shown) [compound 2]", "values": [
      {"measurement": "IC50", "setting": "[4]", "value": "17.4 ± 5.74", "unit": "nM"},
      {"measurement": "fold loss in CCR5 antagonist activity compared to maraviroc", "setting": "[5]", "value": 800, "unit": "fold"},
      {"measurement": "IC50", "setting": "[5]; cells stimulated with RANTES", "value": "14000 ± 345", "unit": "nM"},
      {"measurement": "effect on cell fusion", "setting": "[1]", "value": "significantly lowered cell fusion"},
      {"measurement": "amplification of cell fusion inhibition when morphine present", "setting": "[1]; morphine 300 nM", "value": 2, "unit": "fold"},
      {"measurement": "Ki", "setting": "[6]; Example 1, read-out: binding affinity to the mu opioid receptor, Ki", "value": "9.18 ± 3.44", "unit": "nM"},
      {"measurement": "Ki", "setting": "[6]; mean of three experiments, read-out: Radioligand binding Ki ± SEM", "value": "9.2 ± 3.4", "unit": "nM"},
      {"measurement": "IC50", "setting": "[7]; DAMGO stimulated, hMOR-CHO Gqi5, read-out: Ca2+ inhibition IC50 ± SEM", "value": "37.8 ± 4.4", "unit": "nM"},
      {"measurement": "agonism in Ca2+ mobilization assay", "setting": "[7]; hMOR-CHO Gqi5, data not shown", "value": "No agonism"}
    ]},
    {"smiles": "Cc1nnc(C(C)C)n1C1CC2CCC(C1)N2CCC(NC(=O)C1CCC(F)(F)CC1)c1ccc(N)cc1", "note": "(stereo not shown)", "values": [
      {"measurement": "melting point", "value": "109 to 110", "unit": "°C"}
    ]},
    {"smiles": "Cc1nnc(C(C)C)n1C1C[C@H]2CC[C@@H](C1)N2CC[C@H](NC(=O)C1CCC(F)(F)CC1)c1ccccc1", "note": "(stereo in doubt) [Maraviroc, reference compound]", "values": [
      {"measurement": "effect on cell fusion", "setting": "[1]", "value": "significantly lowered cell fusion"},
      {"measurement": "amplification of cell fusion inhibition when morphine present", "setting": "[1]; morphine 300 nM", "value": "not amplified"},
      {"measurement": "effect on viral entry / Tat production, Example 4", "setting": "[2]", "value": "considerably inhibited viral entry"},
      {"measurement": "effect on virus invasion (Tat expression), Example 3", "setting": "[2]", "value": "virus invasion is decreased"},
      {"measurement": "astrocyte viability", "setting": "[8]; 100 nM, HIV-1 ± morphine, 24 h", "value": "not significantly different"},
      {"measurement": "toxicity in the astrocytes, cytotoxicity assays (not shown)", "setting": "[8]; Example 3", "value": "neither maraviroc nor 1 had any toxicity"},
      {"measurement": "toxicity to the cells at higher concentration", "setting": "[8]; concentration higher than 100 nM", "value": "increased toxicity to the cells"}
    ]}
  ]
}
